The numbers were not newly measured in patent US20250231185A1, “Coronavirus T Cell Epitopes, Megapools and Uses Thereof” (La Jolla Institute for Immunology, priority 2021, published 2025), which cites them from elsewhere.

In the data set the test system is CD8+ T cells. The settings on record: CD8RE megapool peptides (non-spike SARS-CoV-2 antigens); dominant epitope Yes/No; cited from earlier work.
As to 2995 (VTNNTFTLK) [compound 2995], the Dominant result is “Yes (more dominant epitopes are defined by being recognized by 3 or more donors/different studies)”.
On to 2996 (FGDDTVIEV) [compound 2996], for which the Dominant entry is “Yes (more dominant epitopes are defined by being recognized by 3 or more donors/different studies)”.
On to 2997 (PTDNYITTY) [compound 2997], for which the Dominant result is reported as “Yes (more dominant epitopes are defined by being recognized by 3 or more donors/different studies)”.
With 2998 (QEILGTVSW) [compound 2998], the Dominant result is reported as “Yes (more dominant epitopes are defined by being recognized by 3 or more donors/different studies)”.
As for 2999 (TTDPSFLGRY) [compound 2999], the Dominant entry is recorded as “Yes (more dominant epitopes are defined by being recognized by 3 or more donors/different studies)”.
With 3000 (YLATALLTL) [compound 3000], the Dominant entry is given as “Yes (more dominant epitopes are defined by being recognized by 3 or more donors/different studies)”.
Consider 3001 (SAPPAQYEL) [compound 3001], for which the Dominant result is reported as “Yes (more dominant epitopes are defined by being recognized by 3 or more donors/different studies)”.
With 3002 (NYMPYFFTL) [compound 3002], the Dominant result was “Yes (more dominant epitopes are defined by being recognized by 3 or more donors/different studies)”.
For 3003 (ASMPTTIAK) [compound 3003], the Dominant entry was “Yes (more dominant epitopes are defined by being recognized by 3 or more donors/different studies)”.
Consider 3004 (ILFTRFFYV) [compound 3004], for which the Dominant result is on record as “Yes (more dominant epitopes are defined by being recognized by 3 or more donors/different studies)”.
In the case of 3005 (YIFFASFYY) [compound 3005], the Dominant entry is listed as “Yes (more dominant epitopes are defined by being recognized by 3 or more donors/different studies)”.
Turning to 3006 (QLMCQPILLL) [compound 3006], the Dominant result is “Yes (more dominant epitopes are defined by being recognized by 3 or more donors/different studies)”.
As to 3007 (STFNVPMEK) [compound 3007], the Dominant result is on record as “Yes (more dominant epitopes are defined by being recognized by 3 or more donors/different studies)”.
In the case of 3008 (FLPRVFSAV) [compound 3008], the Dominant entry is listed as “Yes (more dominant epitopes are defined by being recognized by 3 or more donors/different studies)”.
With 3009 (FSAVGNICY) [compound 3009], the Dominant result is “Yes (more dominant epitopes are defined by being recognized by 3 or more donors/different studies)”.
For 3010 (SLRPDTRYVL) [compound 3010], the Dominant result is recorded as “Yes (more dominant epitopes are defined by being recognized by 3 or more donors/different studies)”.
3011 (FLLNKEMYL) [compound 3011]: the Dominant result is given as “Yes (more dominant epitopes are defined by being recognized by 3 or more donors/different studies)”.
For the substance 3012 (TSEDMLNPNY) [compound 3012], the Dominant entry is “Yes (more dominant epitopes are defined by being recognized by 3 or more donors/different studies)”.
Regarding 3013 (TPKYKFVRI) [compound 3013], the Dominant result is recorded as “Yes (more dominant epitopes are defined by being recognized by 3 or more donors/different studies)”.
For 3014 (VRIQPGQTF) [compound 3014], the Dominant result is reported as “Yes (more dominant epitopes are defined by being recognized by 3 or more donors/different studies)”.
For 3015 (FLNGSCGSV) [compound 3015], the Dominant entry is reported as “Yes (more dominant epitopes are defined by being recognized by 3 or more donors/different studies)”.
Turning to 3016 (GTDLEGNFY) [compound 3016], the Dominant entry is listed as “Yes (more dominant epitopes are defined by being recognized by 3 or more donors/different studies)”.
Turning to 3017 (VLAWLYAAV) [compound 3017], the Dominant entry is given as “Yes (more dominant epitopes are defined by being recognized by 3 or more donors/different studies)”.
3018 (FLNRFTTTL) [compound 3018]: the Dominant result was “Yes (more dominant epitopes are defined by being recognized by 3 or more donors/different studies)”.
